Measured values from ChEMBL document CHEMBL1127307, “Structural evolution and pharmacology of a novel series of triacid angiotensin II receptor antagonists” (J Med Chem, 1994).
Active and inactive are the calls of the source. The calls are words filed in the database; no cut-off is given here.

Assays:
[1] = target: T1, Type-1 angiotensin II receptor (Oryctolagus cuniculus) (UniProt P34976); assay: In vitro antagonistic activity against Ang II (AT1) receptor was determined in rabbit aorta; assay type: functional, tissue-based
T1 sequence (whole entry): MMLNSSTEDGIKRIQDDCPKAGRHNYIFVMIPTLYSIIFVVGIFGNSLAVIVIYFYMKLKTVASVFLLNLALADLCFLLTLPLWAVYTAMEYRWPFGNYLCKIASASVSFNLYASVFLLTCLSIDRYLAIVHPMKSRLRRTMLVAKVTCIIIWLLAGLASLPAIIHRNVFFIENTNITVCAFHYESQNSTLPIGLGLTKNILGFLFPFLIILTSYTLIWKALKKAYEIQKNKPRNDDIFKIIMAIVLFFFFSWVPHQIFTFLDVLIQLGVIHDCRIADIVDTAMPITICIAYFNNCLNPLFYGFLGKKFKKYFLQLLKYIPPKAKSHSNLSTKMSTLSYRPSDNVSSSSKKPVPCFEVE

[2] = target: T2, Type-1 angiotensin II receptor B (Rattus norvegicus) (UniProt P29089); assay: In vivo pressor response to Ang II (AT1) receptor in pithed rats at an oral dose of 10 mg/kg; assay type: functional, organism-based; design: dose 10 mg/kg
T2 sequence (whole entry): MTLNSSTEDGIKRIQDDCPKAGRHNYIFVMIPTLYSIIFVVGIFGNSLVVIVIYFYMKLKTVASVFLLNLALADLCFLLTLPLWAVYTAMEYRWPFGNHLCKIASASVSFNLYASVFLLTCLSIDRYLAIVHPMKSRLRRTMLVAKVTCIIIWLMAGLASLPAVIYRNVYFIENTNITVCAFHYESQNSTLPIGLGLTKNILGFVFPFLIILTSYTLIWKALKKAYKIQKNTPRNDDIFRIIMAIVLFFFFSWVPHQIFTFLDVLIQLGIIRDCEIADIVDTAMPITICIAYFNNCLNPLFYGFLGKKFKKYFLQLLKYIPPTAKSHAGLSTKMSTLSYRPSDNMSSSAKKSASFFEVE

[3] = target: T2, Type-1 angiotensin II receptor B (Rattus norvegicus); assay: In vivo pressor response to Ang II (AT1) receptor in pithed rats at an oral dose of 10 mg/kg; Not active; assay type: functional, organism-based; design: dose 10 mg/kg

| Structure (SMILES) | Kb [1] [nM] | Kb [2] [mg/kg] | Kb [3] |
| --- | --- | --- | --- |
| CCCCCCC(C(=O)O)n1cnc(NC(=O)c2ccccc2C(=O)O)c1 (centres undefined) | 684 | – | – |
| CCCCCCC(C(=O)O)n1cnc(NC(=O)c2ccccc2S(=O)(=O)O)c1 (centres undefined) | 81.7 | – | – |
| CCCCCC[C@H](C(=O)N1C[C@@H](Oc2ccccc2)C[C@H]1C(=O)O)n1cnc(NC(=O)c2ccccc2S(=O)(=O)O)c1 | 0.8 | – | – |
| CCCCCC[C@H](C(=O)N1C[C@@H](Oc2ccc3c(c2)OCO3)C[C@H]1C(=O)O)n1cnc(NC(=O)c2ccccc2S(=O)(=O)O)c1 | 0.92 | – | – |
| CCCCCCC(C(=O)O)n1cnc(NC(=O)c2ccccc2-c2nn[nH]n2)c1 (centres undefined) | 159 | – | – |
| CCCCCC[C@H](C(=O)N1C[C@@H](Oc2ccc(C(C)C)cc2)C[C@H]1C(=O)O)n1cnc(NC(=O)c2ccccc2S(=O)(=O)O)c1 | 25.1 | – | – |
| CCCCCC[C@H](C(=O)N1C[C@@H](Oc2ccc(CCP(=O)(O)O)cc2)C[C@H]1C(=O)O)n1cnc(NC(=O)c2ccccc2S(=O)(=O)O)c1 | 0.4 | 8.3 | – |
| CCCCC(C(=O)O)n1cnc(C(=O)Nc2ccccc2)c1 (centres undefined) | 71.5 | – | – |
| CCCCCC[C@H](C(=O)N1C[C@@H](Oc2ccc(F)cc2)C[C@H]1C(=O)O)n1cnc(NC(=O)c2ccccc2S(=O)(=O)O)c1 | 3 | – | – |
| CCCCCC[C@H](C(=O)N1C[C@@H](Oc2ccccc2OC)C[C@H]1C(=O)O)n1cnc(NC(=O)c2ccccc2S(=O)(=O)O)c1 | > 30 | – | – |
| CCCCCC[C@H](C(=O)N1C[C@@H](Oc2ccc(CC3N=NN=N3)cc2)C[C@H]1C(=O)O)n1cnc(NC(=O)c2ccccc2S(=O)(=O)O)c1 | 0.6 | – | inactive |
| CCCCCCC(C(=O)O)n1cnc(NC(=O)c2ccccc2)c1 (centres undefined) | 12500 | – | – |
| CCCCCC[C@H](C(=O)N1C[C@@H](Oc2cccc3ccccc23)C[C@H]1C(=O)O)n1cnc(NC(=O)c2ccccc2S(=O)(=O)O)c1 | 4040 | – | – |
| CCCCCC[C@H](C(=O)N1C[C@@H](O)C[C@H]1C(=O)O)n1cnc(NC(=O)c2ccccc2S(=O)(=O)O)c1 | 25.8 | – | – |
| CCCCCC[C@H](C(=O)N1C[C@@H](Oc2ccc(OC(C)(C)C)cc2)C[C@H]1C(=O)O)n1cnc(NC(=O)c2ccccc2S(=O)(=O)O)c1 | 5.2 | – | – |
| CCCCCC[C@H](C(=O)N1C[C@@H](Oc2cccc(CC(=O)O)c2)C[C@H]1C(=O)O)n1cnc(NC(=O)c2ccccc2S(=O)(=O)O)c1 | 15.8 | 10.6 | – |
| CCCCCC[C@H](C(=O)N1C[C@@H](Oc2ccccc2CC(=O)O)C[C@H]1C(=O)O)n1cnc(NC(=O)c2ccccc2S(=O)(=O)O)c1 | 501 | – | inactive |
| CCCCCCC(C(=O)O)n1cnc(NC(=O)c2cccc(O)c2C(=O)O)c1 (centres undefined) | 124 | – | – |
| CCCCCC[C@H](C(=O)N1C[C@@H](Oc2ccc(C(C)(C)C(=O)O)cc2)C[C@H]1C(=O)O)n1cnc(NC(=O)c2ccccc2S(=O)(=O)O)c1 | 0.6 | 6.5 | – |
| CCCCCC[C@H](C(=O)N1C[C@@H](Oc2cccc3cnccc23)C[C@H]1C(=O)O)n1cnc(NC(=O)c2ccccc2S(=O)(=O)O)c1 | 3.3 | – | – |

| Structure (SMILES) | Kb [1] [nM] | Kb [2] [mg/kg] | Kb [3] |
| --- | --- | --- | --- |
| CCCCCC[C@H](C(=O)N1C[C@@H](Oc2cccc(OC)c2)C[C@H]1C(=O)O)n1cnc(NC(=O)c2ccccc2S(=O)(=O)O)c1 | 11.6 | – | – |
| CCCCCC[C@H](C(=O)N1C[C@@H](Oc2ccc(CC(=O)O)cc2)C[C@H]1C(=O)O)n1cnc(NC(=O)c2ccccc2S(=O)(=O)O)c1 | 0.27 | 2.8 | – |
| CCCCCC[C@H](C(=O)N1C[C@@H](Oc2ccc3occc3c2)C[C@H]1C(=O)O)n1cnc(NC(=O)c2ccccc2S(=O)(=O)O)c1 | 0.63 | – | – |
| CCCCCC[C@H](C(=O)N1C[C@@H](Oc2ccc(-c3ccccc3)cc2)C[C@H]1C(=O)O)n1cnc(NC(=O)c2ccccc2S(=O)(=O)O)c1 | 10 | – | – |
| CCCCCC[C@H](C(=O)N1C[C@@H](Oc2ccc3ccccc3c2)C[C@H]1C(=O)O)n1cnc(NC(=O)c2ccccc2S(=O)(=O)O)c1 | 4.1 | – | – |
| CCCCCC[C@H](C(=O)N1CCC[C@H]1C(=O)O)n1cnc(NC(=O)c2ccccc2S(=O)(=O)O)c1 | 50.9 | – | – |
| CCCCCC[C@H](C(=O)N1C[C@@H](Oc2ccno2)C[C@H]1C(=O)O)n1cnc(NC(=O)c2ccccc2S(=O)(=O)O)c1 | 94.6 | – | – |
| CCCCCC[C@H](C(=O)N1C[C@@H](Oc2ccc(OC)c(OC)c2)C[C@H]1C(=O)O)n1cnc(NC(=O)c2ccccc2S(=O)(=O)O)c1 | 15.8 | – | – |
| CCCCCC[C@H](C(=O)N1C[C@@H](Oc2ccc(CP(=O)(O)O)cc2)C[C@H]1C(=O)O)n1cnc(NC(=O)c2ccccc2S(=O)(=O)O)c1 | 0.9 | 1.8 | – |
| CCCCCC[C@H](C(=O)N1C[C@@H](Oc2ccc(C(=O)O)cc2)C[C@H]1C(=O)O)n1cnc(NC(=O)c2ccccc2S(=O)(=O)O)c1 | 1.1 | – | inactive |
| CCCCCC[C@@H](C(=O)N1C[C@@H](Oc2ccccc2)C[C@H]1C(=O)O)n1cnc(NC(=O)c2ccccc2S(=O)(=O)O)c1 | 3.2 | – | – |
| CCCCCC[C@H](C(=O)N1C[C@@H](Oc2cccnc2)C[C@H]1C(=O)O)n1cnc(NC(=O)c2ccccc2S(=O)(=O)O)c1 | 148 | – | – |
| CCCCCC[C@H](C(=O)N1C[C@@H](Oc2ccc(CCC(=O)O)cc2)C[C@H]1C(=O)O)n1cnc(NC(=O)c2ccccc2S(=O)(=O)O)c1 | 0.6 | – | inactive |
| CCCCCC[C@H](C(=O)N1C[C@@H](Oc2ccc(C)cc2)C[C@H]1C(=O)O)n1cnc(NC(=O)c2ccccc2S(=O)(=O)O)c1 | 1.09 | – | – |
| CCCCCC[C@H](C(=O)N1C[C@@H](Oc2ccc(C(C)(C)C)cc2)C[C@H]1C(=O)O)n1cnc(NC(=O)c2ccccc2S(=O)(=O)O)c1 | 126 | – | – |
| CCCCCC[C@@H](C(=O)N1CCC[C@H]1C(=O)O)n1cnc(NC(=O)c2ccccc2S(=O)(=O)O)c1 | 461 | – | – |
| CCCCCC[C@H](C(=O)N1C[C@@H](Oc2ccc(OC(C)C)cc2)C[C@H]1C(=O)O)n1cnc(NC(=O)c2ccccc2S(=O)(=O)O)c1 | 4.1 | – | – |
| CCCCCC[C@H](C(=O)N1C[C@@H](Oc2ccc(C(F)(F)F)cc2)C[C@H]1C(=O)O)n1cnc(NC(=O)c2ccccc2S(=O)(=O)O)c1 | 34.7 | – | – |
| CCCCCC[C@H](C(=O)N1C[C@@H](Oc2ccc3sccc3c2)C[C@H]1C(=O)O)n1cnc(NC(=O)c2ccccc2S(=O)(=O)O)c1 | 3.6 | – | – |
| CCCCCC[C@H](C(=O)N1C[C@@H](Oc2ccc(OC)cc2)C[C@H]1C(=O)O)n1cnc(NC(=O)c2ccccc2S(=O)(=O)O)c1 | 0.44 | – | – |
